Reference: ChEMBL document CHEMBL1141951, “Anti-malarial activity of Baylis-Hillman adducts from substituted 2-chloronicotinaldehydes” (Bioorg Med Chem Lett, 2005)
Converted amounts (≈) assume the structure as drawn.

How the values were obtained:
Type in all cases: functional, organism-based
Plasmodium falciparum [1] = experiment: Antimalarial activity as reduced schizont maturation after 24 hrs against chloroquine-resistant Plasmodium falciparum FDL-NG
Plasmodium falciparum [2] = experiment: Antimalarial activity as growth inhibition after 48 hrs against chloroquine-resistant Plasmodium falciparum FDL-NG
Plasmodium falciparum [3] = experiment: Antimalarial activity as growth inhibition after 48 hrs against chloroquine-sensitive Plasmodium falciparum FDL-B
Plasmodium falciparum [4] = experiment: Antimalarial activity as reduced schizont maturation against chloroquine-sensitive Plasmodium falciparum FDL-B after 24 hrs

Row | Structure (SMILES) | IC50 (Plasmodium falciparum [1]) [µg/mL] | IC50 (Plasmodium falciparum [2]) [µg/mL] | IC50 (Plasmodium falciparum [3]) [µg/mL] | IC50 (Plasmodium falciparum [4]) [µg/mL] | IC90 (Plasmodium falciparum [1]) [µg/mL] | IC90 (Plasmodium falciparum [2]) [µg/mL] | IC90 (Plasmodium falciparum [4]) [µg/mL] | IC90 (Plasmodium falciparum [3]) [µg/mL]
1 | C=C(C#N)C(O)c1cc(C)cnc1Cl (centres undefined) | 22.5 (≈ 108 µM) | 10.5 (≈ 50.3 µM) | 1.3 (≈ 6.23 µM) | 1.25 (≈ 5.99 µM) | – | – | – | –
2 | C=C(C(=O)OC)C(O)c1cc(-c2ccccc2)cnc1Cl (centres undefined) | 5 (≈ 16.5 µM) | 10.8 (≈ 35.4 µM) | 115 (≈ 379 µM) | 45 (≈ 148 µM) | – | – | – | –
3 | C=C(C#N)C(O)c1ccc(C(=O)OC)nc1Cl (centres undefined) | 5.75 (≈ 22.8 µM) | 6.75 (≈ 26.7 µM) | 7 (≈ 27.7 µM) | 3.4 (≈ 13.5 µM) | – | – | – | –
4 | C=C(C(=O)OC)C(O)c1cc(C)cnc1Cl (centres undefined) | 3.05 (≈ 12.6 µM) | 5.75 (≈ 23.8 µM) | 28.5 (≈ 118 µM) | 18 (≈ 74.5 µM) | 7 (≈ 29 µM) | 27.5 (≈ 114 µM) | 32 (≈ 132 µM) | –
5 | C=C(C#N)C(O)c1cc(CC)cnc1Cl (centres undefined) | 2.5 (≈ 11.2 µM) | 5.5 (≈ 24.7 µM) | 4 (≈ 18 µM) | 1.8 (≈ 8.08 µM) | – | – | – | –
6 | C=C(C#N)C(O)c1cc(-c2ccccc2)cnc1Cl (centres undefined) | 0.9 (≈ 3.32 µM) | 2.2 (≈ 8.13 µM) | 8 (≈ 29.6 µM) | 3.6 (≈ 13.3 µM) | – | – | – | –
7 | CCN(CC)CCCC(C)Nc1ccnc2cc(Cl)ccc12 (centres undefined) [CHLOROQUINE] | – | – | – | – | – | – | 0.018 (≈ 0.0563 µM) | 0.02 (≈ 0.0625 µM)
